Results from PubChem BioAssay AID2060898 (Molecular Pharmacology Branch, DTP, NCI, 2025).

Tested on: 616215-338-R-J1-PDC complex spheroid viability
Test: Anticancer human tumor 616215-338-R-J1-PDC patient-derived colon adenocarcinoma cell line growth inhibition [RAS]
Settings: for IC50: curve of first compound; for viability, T/C: stronger effect = lower value
Summary of the method: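 Tumour cells grown as complex spheroids with HUVEC endothelial cells and mesenchymal stem cells, treated with RAS pathway inhibitor combinations. Each agent spans half-log steps from near clinical Cmax, or 10 microM where Cmax is unknown.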

[1] = second compound 0.00316 µM, first compound 0.0316 µM
[2] = second compound 0.00316 µM, first compound 0.1 µM
[3] = second compound 0.00316 µM, first compound 0.316 µM
[4] = second compound 0.00316 µM, first compound 1 µM
[5] = second compound 0.01 µM, first compound 0.0316 µM
[6] = second compound 0.01 µM, first compound 0.1 µM
[7] = second compound 0.01 µM, first compound 0.316 µM
[8] = second compound 0.01 µM, first compound 1 µM
[9] = second compound 0.0316 µM, first compound 0.0316 µM
[10] = second compound 0.0316 µM, first compound 0.1 µM
[11] = second compound 0.0316 µM, first compound 0.316 µM
[12] = second compound 0.0316 µM, first compound 1 µM
[13] = second compound 0.1 µM, first compound 0.0316 µM
[14] = second compound 0.1 µM, first compound 0.1 µM
[15] = second compound 0.1 µM, first compound 0.316 µM
[16] = second compound 0.1 µM, first compound 1 µM
[17] = second compound 0.316 µM, first compound 0.0316 µM
[18] = second compound 0.316 µM, first compound 0.1 µM
[19] = second compound 0.316 µM, first compound 0.316 µM
[20] = second compound 0.316 µM, first compound 1 µM
[21] = second compound 1 µM, first compound 0.0316 µM
[22] = second compound 1 µM, first compound 0.1 µM
[23] = second compound 1 µM, first compound 0.316 µM
[24] = second compound 1 µM, first compound 1 µM
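Note: spheroids exposed to agents for seven days before viability readout.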
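Throughout, for viability, T/C: 100% = DMSO vehicle control viability.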

For `CC(Nc1ccc2c(c1)OCCn1cc(N3C(=O)OCC3C(F)F)nc1-2)C(N)=O` (centres undefined) + C=CC(=O)N1CCN(c2nc(OCC3CCCN3C)nc3c(F)c(-c4nc(N)cc(C)c4C(F)(F)F)c(Cl)cc23)C(C)C1, the IC50 (second compound 0.00316 µM) was > 10000 nM, the IC50 (second compound 0.01 µM) was > 10000 nM and the IC50 (second compound 0.0316 µM) was > 10000 nM. The IC50 (second compound 0.1 µM) was > 10000 nM, the IC50 (second compound 0.316 µM) was > 10000 nM and the IC50 (second compound 1 µM) was > 10000 nM. The viability, T/C [1] was 106%, the viability, T/C [2] was 122% and the viability, T/C [3] was 109%. The viability, T/C [4] was 101%, the viability, T/C (second compound 0.00316 µM, first compound 3.16 µM) was 100% and the viability, T/C (second compound 0.00316 µM, first compound 10 µM) was 82.2%. It also gave a viability, T/C [5] of 106%, a viability, T/C [6] of 115% and a viability, T/C [7] of 110%. For the same compound, the viability, T/C [8] was 111%, the viability, T/C (second compound 0.01 µM, first compound 3.16 µM) was 105% and the viability, T/C (second compound 0.01 µM, first compound 10 µM) was 85.9%. It also gave a viability, T/C [9] of 110%, a viability, T/C [10] of 114% and a viability, T/C [11] of 119%. The viability, T/C [12] was 115%, the viability, T/C (second compound 0.0316 µM, first compound 3.16 µM) was 93.3% and the viability, T/C (second compound 0.0316 µM, first compound 10 µM) was 80.1%. It also gave a viability, T/C [13] of 111%, a viability, T/C [14] of 108% and a viability, T/C [15] of 107%. The viability, T/C [16] was 131%, the viability, T/C (second compound 0.1 µM, first compound 3.16 µM) was 101% and the viability, T/C (second compound 0.1 µM, first compound 10 µM) was 77.9%. The viability, T/C [17] was 109%, the viability, T/C [18] was 103% and the viability, T/C [19] was 111%. The viability, T/C [20] was 109%, the viability, T/C (second compound 0.316 µM, first compound 3.16 µM) was 103% and the viability, T/C (second compound 0.316 µM, first compound 10 µM) was 86.2%. It also gave a viability, T/C [21] of 106%, a viability, T/C [22] of 107% and a viability, T/C [23] of 109%. For the same compound, the viability, T/C [24] was 119%, the viability, T/C (second compound 1 µM, first compound 3.16 µM) was 98% and the viability, T/C (second compound 1 µM, first compound 10 µM) was 73.4%.

For `O=C(c1ccc(F)c(F)c1Nc1ccc(I)cc1F)N1CC(O)([C@@H]2CCCCN2)C1` + C=CC(=O)N1CCN(c2nc(OCC3CCCN3C)nc3c(F)c(-c4nc(N)cc(C)c4C(F)(F)F)c(Cl)cc23)C(C)C1, the IC50 (second compound 0.00316 µM) was 62.1 nM, the IC50 (second compound 0.01 µM) was 70.7 nM and the IC50 (second compound 0.0316 µM) was 72.1 nM. For the same compound, the IC50 (second compound 0.1 µM) was 89.4 nM, the IC50 (second compound 0.316 µM) was 67.4 nM and the IC50 (second compound 1 µM) was 61.3 nM. The viability, T/C (second compound 0.00316 µM, first compound 0.00316 µM) was 114%, the viability, T/C (second compound 0.00316 µM, first compound 0.01 µM) was 112% and the viability, T/C [1] was 65.3%. For the same compound, the viability, T/C [2] was 38.6%, the viability, T/C [3] was 12.9% and the viability, T/C [4] was 4.36%. For the same compound, the viability, T/C (second compound 0.01 µM, first compound 0.00316 µM) was 98.8%, the viability, T/C (second compound 0.01 µM, first compound 0.01 µM) was 108% and the viability, T/C [5] was 81.7%. It also gave a viability, T/C [6] of 36%, a viability, T/C [7] of 13.1% and a viability, T/C [8] of 6.62%. For the same compound, the viability, T/C (second compound 0.0316 µM, first compound 0.00316 µM) was 110%, the viability, T/C (second compound 0.0316 µM, first compound 0.01 µM) was 115% and the viability, T/C [9] was 74.7%. It also gave a viability, T/C [10] of 40%, a viability, T/C [11] of 15% and a viability, T/C [12] of 3.89%. It also gave a viability, T/C (second compound 0.1 µM, first compound 0.00316 µM) of 106%, a viability, T/C (second compound 0.1 µM, first compound 0.01 µM) of 116% and a viability, T/C [13] of 82.5%. For the same compound, the viability, T/C [14] was 47.5%, the viability, T/C [15] was 16.7% and the viability, T/C [16] was 6.51%. It also gave a viability, T/C (second compound 0.316 µM, first compound 0.00316 µM) of 100%, a viability, T/C (second compound 0.316 µM, first compound 0.01 µM) of 105% and a viability, T/C [17] of 80.6%. For the same compound, the viability, T/C [18] was 33.1%, the viability, T/C [19] was 13.9% and the viability, T/C [20] was 4.52%. The viability, T/C (second compound 1 µM, first compound 0.00316 µM) was 102%, the viability, T/C (second compound 1 µM, first compound 0.01 µM) was 101% and the viability, T/C [21] was 72.2%. The viability, T/C [22] was 31.7%, the viability, T/C [23] was 18.8% and the viability, T/C [24] was 5.31%.
